Read-outs that look alike come from different tables or passages of the source.
Assays:
[1] = particularly in plasma and blood; cited from earlier work
[2] = Stability of physostigmine in rat plasma; assay type: in vitro ADME; settings: for Amount Recovered: rat plasma
Procedure: To show the stability of physostigmine in biological fluids, physostigmine was added to 2 portions of rat plasma. One half of the plasma was kept at room temperature and the other was kept at 4° C. Aliquots which originally contained 3.6 ng of physostigmine were assayed at various times. […] Since the samples were cooled and processed at 4° C., corrections for loss of physostigmine were unnecessary.

[3] = cited from earlier work
[4] = Physostigmine pharmacokinetics and tissue concentrations in rats after intramuscular administration; assay type: in vivo, Male Sprague-Dawley rats; settings: 0.3 mg/kg intramuscular; for concentration at 0.5 h: 30 min; for concentration at 0.75 h: 45 min; for concentration at 1 h: 60 min; for concentration at 1.5 h: 90 min; for concentration at 2 h: 120 min
Procedure: To study the pharmakinetics of physostigmine and validate the RIA and the antibody specificity of the present invention, rat studies were conducted. Male Sprague-Dawley rats weighing approximately 500 grams were housed two per cage at 23° C. with a twelve hour on-off light cycle. The animals were given food and water ad libitum. After sixty days, food was withheld for twelve hours. Physostigmine, comprised of a physostigmine base dissolved in a small volume of dilute hydrochloric acid and then diluted with phosphate buffered saline, with the pH of the solution adjusted to 6.0 was administered (0.3 mg. of the physostigmine solution/Kg) intramuscularly to the rats. Groups of three animals were sacrificed by using inhalation anesthetic, Fluothane (0.01% thymol, w/w; and 0.00025% ammonia, w/w) Ayerst Laboratories, New York, […] Blood, collected via heart puncture, and tissue samples were taken. Brain, fat, heart, muscle and spleen were removed and frozen on dry ice immediately. On the date of analysis the plasma and tissue samples were thawed. The tissues were weighed and homogenized with an equal volume of cold solution of 10 mM EDTA, 150 mM NaCl and 0.5% triton X-100, pH 7.4. The suspension Was centrifuged at 15,000×g in a Sorvall RC-5B centrifuge (Dupont) for 30 min at 4° C. The supernatent was collected and the pellet was Washed and centrifuged. The supernatants were combined and filtered through 1 um pore size filters (RC 60, 9 mm diameter from Schleicher and Schuell Inc., Keene, N.H.) and 100 ul of the filtrate was injected into the HPLC column.
The blood and tissue samples were used to determine the concentration of physostigmine as a function of time. FIG. 3 gives the physostigmine level in the plasma of three male rats for each time interval as determined by the RIA of the present invention, while Table 4 presents the concentration of physostigmine in various organs as a function of time.

[5] = rat, brain, im, read-out: Tissue concentration of physostigmine, Brain
[6] = rat, fat, im, read-out: Tissue concentration of physostigmine, Fat
[7] = rat, heart, im, read-out: Tissue concentration of physostigmine, Heart
[8] = rat, muscle, im, read-out: Tissue concentration of physostigmine, Muscle
[9] = rat, spleen, im, read-out: Tissue concentration of physostigmine, Spleen

## CNC(=O)Oc1ccc2c(c1)[C@]1(C)CCN(C)[C@@H]1N2C [Physostigmine, physostigmine]
[1]
  in vitro hydrolysis in biological solutions: extensive in vitro hydrolysis
[2]; 4° C., 0 min, originally 3.6 ng
  Amount Recovered: 3.6 ng
[2]; 4° C., 15 min
  Amount Recovered: 3.4 ng
[2]; 4° C., 30 min
  Amount Recovered: 3.6 ng
[2]; 4° C., 1 hr
  Amount Recovered: 3.8 ng
[2]; 4° C., 2 hr
  Amount Recovered: 3.6 ng
[2]; 4° C., 3 hr
  Amount Recovered: 3.6 ng
[2]; 4° C., 4 hr
  Amount Recovered: 3.6 ng
[2]; 23° C., 0 min, originally 3.6 ng
  Amount Recovered: 3.6 ng
[2]; 23° C., 15 min
  Amount Recovered: 3.3 ng
[2]; 23° C., 30 min
  Amount Recovered: 3.1 ng
[2]; 23° C., 1 hr
  Amount Recovered: 2.7 ng
[2]; 23° C., 2 hr
  Amount Recovered: 2.8 ng
[2]; 23° C., 3 hr
  Amount Recovered: 2.8 ng
[2]; 23° C., 4 hr
  Amount Recovered: 2.8 ng
[2]; rat, plasma, kept at 4° C. for 3 hr, read-out: physostigmine recovered from plasma samples
  remaining at 3 h: > 95%
[2]; rat, plasma, processed within 15 min. at room temperature, read-out: physostigmine recovered from plasma samples
  remaining at 0.25 h: > 95%
[3]
  lipid solubility: high degree of lipid solubility
  solubility in biological fluids: soluble in biological fluids
[4]; 180 min
  Tissue concentration of physostigmine, Brain: 0.00 ng/g
[4]; im, rat, spleen, read-out: time during which spleen levels continued to increase (converted)
  Tmax: 20 min
[4]; rat
  estimated plasma half-life during the rapid decline phase: approximately 15 min
  time until present in all of the tissues studied: ≤ 2.5 min
  tissue distribution: rapidly distributed to central as well as peripheral tissues
  tissues with highest tissue concentrations: heart and spleen
[4]; [5]
  concentration at 2.5 min: 331 ng/g
  concentration at 5 min: 297 ng/g
  concentration at 10 min: 292 ng/g
  concentration at 20 min: 198 ng/g
  concentration at 0.5 h: 173 ng/g
  concentration at 0.75 h: 45.6 ng/g
  concentration at 1 h: 15.7 ng/g
  concentration at 1.5 h: 3.05 ng/g
  concentration at 2 h: 0.53 ng/g
[4]; [6]
  concentration at 2.5 min: 230 ng/g
  concentration at 5 min: 533 ng/g
  concentration at 10 min: 398 ng/g
  concentration at 20 min: 360 ng/g
  concentration at 0.5 h: 292 ng/g
  concentration at 0.75 h: 95 ng/g
  concentration at 1 h: 86.3 ng/g
  concentration at 1.5 h: 80.5 ng/g
  concentration at 2 h: 58.6 ng/g
[4]; rat, fat, im, 180 min, read-out: Tissue concentration of physostigmine, Fat
  concentration at 3 h: 10.3 ng/g
[4]; [7]
  concentration at 2.5 min: 332 ng/g
  concentration at 5 min: 785 ng/g
  concentration at 20 min: 371 ng/g
  concentration at 0.5 h: 213 ng/g
  concentration at 0.75 h: 79.2 ng/g
  concentration at 1 h: 78.5 ng/g
  concentration at 1.5 h: 66.9 ng/g
  concentration at 2 h: 47.2 ng/g
[4]; rat, heart, im, 180 min, read-out: Tissue concentration of physostigmine, Heart
  concentration at 3 h: 48.7 ng/g
[4]; [8]
  concentration at 2.5 min: 321 ng/g
  concentration at 5 min: 225 ng/g
  concentration at 10 min: 540 ng/g
  concentration at 20 min: 323 ng/g
  concentration at 0.5 h: 243 ng/g
  concentration at 0.75 h: 241 ng/g
  concentration at 1 h: 86 ng/g
  concentration at 1.5 h: 70 ng/g
  concentration at 2 h: 35 ng/g
[4]; rat, muscle, im, 180 min, read-out: Tissue concentration of physostigmine, Muscle
  concentration at 3 h: 37.5 ng/g
[4]; [9]
  concentration at 2.5 min: 322 ng/g
  concentration at 5 min: 627 ng/g
  concentration at 10 min: 955 ng/g
  concentration at 20 min: 986 ng/g
  concentration at 0.5 h: 912 ng/g
  concentration at 0.75 h: 835 ng/g
  concentration at 1 h: 540 ng/g
  concentration at 1.5 h: 358 ng/g
  concentration at 2 h: 227 ng/g
[4]; rat, spleen, im, 180 min, read-out: Tissue concentration of physostigmine, Spleen
  concentration at 3 h: 55.6 ng/g

— patent US5252495A, “Immunoassay for physostigmine” (priority 1992, dated 1993)
